Test results from patent publication US20230085307A1, “PYRIDAZINONE COMPOUND AND HERBICIDE” (NISSAN CHEMICAL CORPORATION, priority 2019, published 2023).

What was measured:
windgrass [1] = assay: Test Example 4: herbicidal effect by soil treatment (Table 19, symbol L); type: in vivo, windgrass (Apera spica-venti); conditions: amount of applied herbicide 320 g/ha
In short: (§1)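 Emulsion of test compound, water-diluted to predetermined amount, sprayed on soil after sowing (seed depth ~1.5 cm, sterilized diluvial soil). Greenhouse, 25–30° C. Effect graded at three weeks post-spray.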

rice flat sedge = assay: Test Example 3: herbicidal effect by foliage application, Wagner pot (Table 18, symbol E); type: in vivo, rice flat sedge (Cyperus iria); conditions: for herbicidal effect on rice flat sedge (E): 320 g/ha
In short: (§2)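 Plants were sown in alluvial soil held under 0.1–0.5 cm standing water and grown 14 days in a greenhouse at 25–30 °C. An emulsifiable formulation, water-diluted to the set dose, was then sprayed onto the foliage, and effects were scored three weeks later using previously defined criteria.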

green foxtail = assay: Test Example 5: herbicidal effect by foliage application, plastic box (Table 20, symbol G); type: in vivo, green foxtail (Setaria viridis); conditions: 320 g/ha; for herbicidal effect on G: green foxtail (evaluation grade 0-5): foliage application after 14-day growth, evaluated three weeks after application
In short: (§3)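 Post-emergence foliar test in sterilized diluvial soil. Compound applied as water-diluted emulsion at a predetermined rate to 14-day-old plants; evaluation at three weeks.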

oval-leafed pondweed [2] = assay: Test Example 2: herbicidal activity, application during weed generation under submerged conditions (Table 17, symbol C); type: in vivo, oval-leafed pondweed (Monochoria vaginalis); conditions: for herbicidal effect rating, C: oval-leafed pondweed: AAH 320 g/ha, application during weed generation, submerged conditions
In short: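 Herbicide emulsion, diluted with water to the chosen amount, is applied onto 4 cm floodwater over alluvial soil where the weeds were co-sown and raised at 25–30° C. Application timing: 1–2 leaves. Assessment: three weeks afterwards.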

oval-leafed pondweed [3] = assay: Test Example 1: herbicidal activity, application before weed generation under submerged conditions (Table 16, symbol C); type: in vivo, oval-leafed pondweed (Monochoria vaginalis); conditions: amount of applied herbicide 320 g/ha
In short: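 Emulsion formulation, water-diluted to set dose, was put onto the flooded surface (4 cm depth, alluvial soil) the same day weeds were sown and 2.5-leaf rice transplanted. After 3 weeks at 25-30 °C under glass, each species was rated 0 (≤5% kill) to 5 (≥90% kill).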

chickweed = assay: Test Example 5: herbicidal effect by foliage application, plastic box (Table 20, symbol P); type: in vivo, common chickweed (Stellaria media); conditions: 320 g/ha; for herbicidal effect on P: chickweed (evaluation grade 0-5): foliage application after 14-day growth, evaluated three weeks after application
In short: as §3

barnyard grass = assay: Test Example 5: herbicidal effect by foliage application, plastic box (Table 20, symbol H); type: in vivo, barnyard grass (Echinochloa crus-galli); conditions: 320 g/ha; for herbicidal effect on H: barnyard grass (evaluation grade 0-5): foliage application after 14-day growth, evaluated three weeks after application
In short: as §3

lambsquarters [4] = assay: Test Example 4: herbicidal effect by soil treatment (Table 19, symbol O); type: in vivo, lambsquarters (Chenopodium album); conditions: amount of applied herbicide 320 g/ha
In short: as §1

southern crabgrass [5] = assay: Test Example 5: herbicidal effect by foliage application, plastic box (Table 20, symbol F); type: in vivo, southern crabgrass (Digitaria ciliaris); conditions: 320 g/ha; for herbicidal effect on F: southern crabgrass (evaluation grade 0-5): foliage application after 14-day growth, evaluated three weeks after application
In short: as §3

windgrass [6] = assay: Test Example 5: herbicidal effect by foliage application, plastic box (Table 20, symbol L); type: in vivo, windgrass (Apera spica-venti); conditions: 320 g/ha; for herbicidal effect on L: windgrass (evaluation grade 0-5): foliage application after 14-day growth, evaluated three weeks after application
In short: as §3

velvetleaf = assay: Test Example 4: herbicidal effect by soil treatment (Table 19, symbol M); type: in vivo, velvetleaf (Abutilon theophrasti); conditions: amount of applied herbicide 320 g/ha
In short: as §1

lambsquarters [7] = assay: Test Example 5: herbicidal effect by foliage application, plastic box (Table 20, symbol O); type: in vivo, lambsquarters (Chenopodium album); conditions: 320 g/ha; for herbicidal effect on O: lambsquarters (evaluation grade 0-5): foliage application after 14-day growth, evaluated three weeks after application
In short: as §3

persian speedwell = assay: Test Example 5: herbicidal effect by foliage application, plastic box (Table 20, symbol R); type: in vivo, Persian speedwell (Veronica persica); conditions: 320 g/ha; for herbicidal effect on R: persian speedwell (evaluation grade 0-5): foliage application after 14-day growth, evaluated three weeks after application
In short: as §3

Chinese sprangletop = assay: Test Example 3: herbicidal effect by foliage application, Wagner pot (Table 18, symbol D); type: in vivo, chinese sprangletop (Leptochloa chinensis); conditions: for herbicidal effect on Chinese sprangletop (D): 320 g/ha
In short: as §2

southern crabgrass [8] = assay: Test Example 4: herbicidal effect by soil treatment (Table 19, symbol F); type: in vivo, southern crabgrass (Digitaria ciliaris); conditions: amount of applied herbicide 320 g/ha
In short: as §1

redroot pigweed = assay: Test Example 4: herbicidal effect by soil treatment (Table 19, symbol N); type: in vivo, redroot pigweed (Amaranthus retroflexus); conditions: amount of applied herbicide 320 g/ha
In short: as §1

[9] = foliage application, three weeks after application
[10] = amount of applied herbicide 320 g/ha
[11] = foliage application, evaluated 3 weeks after application

SMILES | Herbicidal effect by soil treatment, L: windgrass (windgrass [1]) | herbicidal effect on rice flat sedge (E) (rice flat sedge) | herbicidal effect on G: green foxtail (evaluation grade 0-5) (green foxtail) | herbicidal effect rating, C: oval-leafed pondweed (oval-leafed pondweed [2]) | Herbicidal effect, C: oval-leafed pondweed (oval-leafed pondweed [3]) | herbicidal effect on P: chickweed (evaluation grade 0-5) (chickweed) | herbicidal effect on H: barnyard grass (evaluation grade 0-5) (barnyard grass) | Herbicidal effect by soil treatment, O: lambsquarters (lambsquarters [4]) | herbicidal effect on F: southern crabgrass (evaluation grade 0-5) (southern crabgrass [5]) | herbicidal effect on L: windgrass (evaluation grade 0-5) (windgrass [6]) | Herbicidal effect by soil treatment, M: velvetleaf (velvetleaf) | herbicidal effect on O: lambsquarters (evaluation grade 0-5) (lambsquarters [7]) | herbicidal effect on R: persian speedwell (evaluation grade 0-5) (persian speedwell) | herbicidal effect on Chinese sprangletop (D) (Chinese sprangletop) | Herbicidal effect by soil treatment, F: southern crabgrass (southern crabgrass [8]) | Herbicidal effect by soil treatment, N: redroot pigweed (redroot pigweed) | L: windgrass, herbicidal effect grade (windgrass [1]) | O: lambsquarters, herbicidal effect grade (lambsquarters [4]) | M: velvetleaf, herbicidal effect grade (velvetleaf) | F: southern crabgrass, herbicidal effect grade (southern crabgrass [8]) | other results
COc1ccc2c(-c3c(OC(=O)C4CCCCC4)c(C)nn(C)c3=O)c(-c3ccccc3OC)sc2c1 [3-156] | 0 (Herbicidal rate of 5% or less (almost no effect)) | 3 (Herbicidal rate of 40% or more and less than 70%) | 5 (Herbicidal rate of 90% or more (almost completely withered)) | 5 (Herbicidal rate of 90% or more (almost completely withered)) | 4 (Herbicidal rate of 70% or more and less than 90%) | 5 (Herbicidal rate of 90% or more (almost completely withered)) | 5 (Herbicidal rate of 90% or more (almost completely withered)) | 0 (Herbicidal rate of 5% or less (almost no effect)) | 5 (Herbicidal rate of 90% or more (almost completely withered)) | 5 (Herbicidal rate of 90% or more (almost completely withered)) | 0 (Herbicidal rate of 5% or less (almost no effect)) | 4 (Herbicidal rate of 70% or more and less than 90%) | 5 (Herbicidal rate of 90% or more (almost completely withered)) | 4 (Herbicidal rate of 70% or more and less than 90%) | 0 (Herbicidal rate of 5% or less (almost no effect)) | 0 (Herbicidal rate of 5% or less (almost no effect)) |  |  |  |  | 
COc1ccccc1-c1sc2cc(OCc3ccccc3)ccc2c1-c1c(O)c(C)nn(C)c1=O [3-118] |  | 5 (Herbicidal rate of 90% or more (almost completely withered)) |  | 0 (Herbicidal rate of 5% or less (almost no effect)) | 5 (Herbicidal rate of 90% or more (almost completely withered)) |  |  |  |  |  |  |  |  | 0 (Herbicidal rate of 5% or less (almost no effect)) |  |  | 3 (Herbicidal rate of 40% or more and less than 70%) | 1 (Herbicidal rate of 5% or more and less than 20%) | 0 (Herbicidal rate of 5% or less (almost no effect)) | 0 (Herbicidal rate of 5% or less (almost no effect)) | G: green foxtail, herbicidal effect grade (green foxtail; [9]): 3 (Herbicidal rate of 40% or more and less than 70%); P: chickweed, herbicidal effect grade (chickweed; [9]): 3 (Herbicidal rate of 40% or more and less than 70%); H: barnyard grass, herbicidal effect grade (barnyard grass; [9]): 0 (Herbicidal rate of 5% or less (almost no effect)); F: southern crabgrass, herbicidal effect grade (southern crabgrass [5]; [9]): 4 (Herbicidal rate of 70% or more and less than 90%); L: windgrass, herbicidal effect grade (windgrass [6]; [9]): 5 (Herbicidal rate of 90% or more (almost completely withered)); O: lambsquarters, herbicidal effect grade (lambsquarters [7]; [9]): 5 (Herbicidal rate of 90% or more (almost completely withered)); R: persian speedwell, herbicidal effect grade (persian speedwell; [9]): 5 (Herbicidal rate of 90% or more (almost completely withered)); N: redroot pigweed, herbicidal effect grade (redroot pigweed): 3 (Herbicidal rate of 40% or more and less than 70%)
Cc1ccc2oc(-c3ccc(OCC(C)C)cc3)c(-c3c(O)c(C)nn(C)c3=O)c2c1 [9-051] |  |  |  |  | 5 (Herbicidal rate of 90% or more (almost completely withered)) |  |  |  |  |  |  |  |  |  |  |  | 4 (Herbicidal rate of 70% or more and less than 90%) | 5 (Herbicidal rate of 90% or more (almost completely withered)) | 3 (Herbicidal rate of 40% or more and less than 70%) | 1 (Herbicidal rate of 5% or more and less than 20%) | Herbicidal effect on E (rice flat sedge), foliage application (rice flat sedge; [10]): 4 (Herbicidal rate of 70% or more and less than 90%); G (green foxtail) herbicidal effect grade (green foxtail; [11]): 5 (Herbicidal rate of 90% or more (almost completely withered)); herbicidal effect grade, C: oval-leafed pondweed (oval-leafed pondweed [2]; application during weed generation under submerged conditions, amount of applied herbicide 320 g/ha): 5 (Herbicidal rate of 90% or more (almost completely withered)); P (chickweed) herbicidal effect grade (chickweed; [11]): 5 (Herbicidal rate of 90% or more (almost completely withered)); H (barnyard grass) herbicidal effect grade (barnyard grass; [11]): 4 (Herbicidal rate of 70% or more and less than 90%); F (southern crabgrass) herbicidal effect grade (southern crabgrass [5]; [11]): 5 (Herbicidal rate of 90% or more (almost completely withered)); L (windgrass) herbicidal effect grade (windgrass [6]; [11]): 2 (Herbicidal rate of 20% or more and less than 40%); O (lambsquarters) herbicidal effect grade (lambsquarters [7]; [11]): 5 (Herbicidal rate of 90% or more (almost completely withered)); R (persian speedwell) herbicidal effect grade (persian speedwell; [11]): 5 (Herbicidal rate of 90% or more (almost completely withered)); Herbicidal effect on D (Chinese sprangletop), foliage application (Chinese sprangletop; [10]): 3 (Herbicidal rate of 40% or more and less than 70%); N: redroot pigweed, herbicidal effect grade (redroot pigweed): 5 (Herbicidal rate of 90% or more (almost completely withered))
CCCC(=O)Oc1c(C)nn(C)c(=O)c1-c1c(-c2ccc(C#N)cc2)sc2c(Cl)cccc12 [4-032] | 0 (Herbicidal rate of 5% or less (almost no effect)) | 5 (Herbicidal rate of 90% or more (almost completely withered)) | 0 (Herbicidal rate of 5% or less (almost no effect)) | 0 (Herbicidal rate of 5% or less (almost no effect)) | 0 (Herbicidal rate of 5% or less (almost no effect)) | 5 (Herbicidal rate of 90% or more (almost completely withered)) | 0 (Herbicidal rate of 5% or less (almost no effect)) | 0 (Herbicidal rate of 5% or less (almost no effect)) | 0 (Herbicidal rate of 5% or less (almost no effect)) | 4 (Herbicidal rate of 70% or more and less than 90%) | 0 (Herbicidal rate of 5% or less (almost no effect)) | 3 (Herbicidal rate of 40% or more and less than 70%) | 5 (Herbicidal rate of 90% or more (almost completely withered)) | 3 (Herbicidal rate of 40% or more and less than 70%) | 0 (Herbicidal rate of 5% or less (almost no effect)) | 3 (Herbicidal rate of 40% or more and less than 70%) |  |  |  |  | 
